According to patent publication US20250145665A1, “MACROCYCLIC PEPTIDES USEFUL AS MODULATORS OF TNF ALPHA” (Bristol-Myers Squibb Company, priority 2023, published 2025):
Positions of bridges follow the written chain, without caps; N, C: chain ends. Non-standard residues stand in square brackets, D forms with d. Residues, ends and D or L forms follow the SMILES beside them. Ala(morpholin-4-yl) = N[C@@H](CN1CCOCC1)C(=O)O; Bip = N[C@@H](Cc1ccc(-c2ccccc2)cc1)C(=O)O; Phe(4-NH2) = Nc1ccc(C[C@H](N)C(=O)O)cc1; Val(3-OH) = CC(C)(O)[C@H](N)C(=O)O; 2Pal = N[C@@H](Cc1ccccn1)C(=O)O; 3Pal = N[C@@H](Cc1cccnc1)C(=O)O; d(αMeP) = C[C@]1(C(=O)O)CCCN1; Sar = CNCC(=O)O

Molecular target: TNFα (Homo sapiens, UniProt P01375)
Sequence (P01375 77-233 limits assumed): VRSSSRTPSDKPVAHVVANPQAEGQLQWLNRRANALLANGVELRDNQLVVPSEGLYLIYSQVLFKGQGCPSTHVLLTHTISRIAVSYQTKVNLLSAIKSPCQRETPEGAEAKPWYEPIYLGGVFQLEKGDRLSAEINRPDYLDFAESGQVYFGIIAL
Experiment: TNF-Induced HEK-Blue Assay
Type: cell-based
Conditions: HEK-Blue-CD40L cells, NF-kB-driven secreted alkaline phosphatase reporter; TNFα 0.5 ng/ml; 18 h; read-out: TNF induced HEK-Blue assay IC50 value

SMILES	IC50
CC(C)C[C@@H]1NC(=O)[C@H](Cc2ccc(O)cc2)NC(=O)[C@H](C(C)C)NC(=O)[C@@H]2CCCN2C(=O)[C@H](C(C)C)NC(=O)[C@@H](CCCNC(=N)N)NC(=O)[C@H](CC(=O)O)NC(=O)[C@@]2(C)CCCN2C(=O)CN(C)C(=O)[C@H](Cc2ccc(-c3ccccc3)cc2)NC(=O)[C@H](Cc2ccc(-c3ccccc3)cc2)NC(=O)[C@H](CN2CCOCC2)NC(=O)CSC[C@@H](C(=O)NCC(N)=O)NC1=O [Example 102] ({CH2CO}-[Ala(morpholin-4-yl)][Bip][Bip][Sar][d(αMeP)]D[dR]VPVYLCG-NH2; thioether N-13)	200 to 2000 nM
CC(C)C[C@@H]1NC(=O)[C@H](CCCNC(=N)N)NC(=O)[C@H](C(C)C)NC(=O)[C@@H]2CCCN2C(=O)[C@H](C(C)C)NC(=O)[C@@H](CCCNC(=N)N)NC(=O)[C@H](CC(=O)O)NC(=O)[C@@]2(C)CCCN2C(=O)CN(C)C(=O)[C@H](Cc2ccc(-c3ccccc3)cc2)NC(=O)[C@H](Cc2ccc(-c3ccccc3)cc2)NC(=O)[C@H](CN2CCOCC2)NC(=O)CSC[C@@H](C(=O)NCC(N)=O)NC1=O [Example 103] ({CH2CO}-[Ala(morpholin-4-yl)][Bip][Bip][Sar][d(αMeP)]D[dR]VPVRLCG-NH2; thioether N-13)	200 to 2000 nM
CC(C)C[C@@H]1NC(=O)[C@H](CCCNC(=N)N)NC(=O)[C@H](Cc2ccccc2)NC(=O)[C@@H]2CCCN2C(=O)[C@H](C(C)C)NC(=O)[C@@H](CCCNC(=N)N)NC(=O)[C@H](CC(=O)O)NC(=O)[C@@H]2CCCN2C(=O)CN(C)C(=O)[C@H](Cc2ccc(-c3ccccc3)cc2)NC(=O)[C@H](Cc2ccc(-c3ccccc3)cc2)NC(=O)[C@H](CN2CCOCC2)NC(=O)CSC[C@@H](C(=O)NCC(N)=O)NC1=O [Example 104] ({CH2CO}-[Ala(morpholin-4-yl)][Bip][Bip][Sar]PD[dR]VPFRLCG-NH2; thioether N-13)	200 to 2000 nM
CC(C)C[C@@H]1NC(=O)[C@H](Cc2ccc(O)cc2)NC(=O)[C@H](C(C)C)NC(=O)[C@H](Cc2cccnc2)NC(=O)[C@H](C(C)C)NC(=O)[C@H](CCCNC(=N)N)NC(=O)[C@H](CC(=O)O)NC(=O)[C@H](Cc2ccc(O)cc2)NC(=O)CN(C)C(=O)[C@H](Cc2ccc(-c3ccccc3)cc2)NC(=O)[C@H](Cc2ccc(-c3ccccc3)cc2)NC(=O)[C@H](C(C)(C)O)NC(=O)CSC[C@@H](C(=O)NCC(N)=O)NC1=O [Example 106] ({CH2CO}-[Val(3-OH)][Bip][Bip][Sar]YDRV[3Pal]VYLCG-NH2; thioether N-13)	50 to 200 nM
CC(C)C[C@@H]1NC(=O)[C@H](Cc2ccc(O)cc2)NC(=O)[C@H](C(C)C)NC(=O)[C@H](Cc2cccnc2)NC(=O)[C@H](C(C)C)NC(=O)[C@H](CCCNC(=N)N)NC(=O)[C@H](CC(=O)O)NC(=O)[C@H](Cc2ccc(O)cc2)NC(=O)CN(C)C(=O)[C@H](Cc2ccc(-c3ccccc3)cc2)NC(=O)[C@H](Cc2ccc(-c3ccccc3)cc2)NC(=O)[C@H](CN2CCOCC2)NC(=O)CSC[C@@H](C(=O)NCC(N)=O)NC1=O [Example 107] ({CH2CO}-[Ala(morpholin-4-yl)][Bip][Bip][Sar]YDRV[3Pal]VYLCG-NH2; thioether N-13)	50 to 200 nM
CC(C)C[C@@H]1NC(=O)[C@H](CCCNC(=N)N)NC(=O)[C@H](C(C)C)NC(=O)[C@H](Cc2ccccn2)NC(=O)[C@H](C(C)C)NC(=O)[C@H](CCCNC(=N)N)NC(=O)[C@H](CC(=O)O)NC(=O)[C@@H]2CCCN2C(=O)CN(C)C(=O)[C@H](Cc2ccc(-c3ccccc3)cc2)NC(=O)[C@H](Cc2ccc(-c3ccccc3)cc2)NC(=O)[C@H](C(C)(C)O)NC(=O)CSC[C@@H](C(=O)NCC(N)=O)NC1=O [Example 108] ({CH2CO}-[Val(3-OH)][Bip][Bip][Sar]PDRV[2Pal]VRLCG-NH2; thioether N-13)	50 to 200 nM
CC(C)C[C@@H]1NC(=O)[C@H](Cc2ccc(O)cc2)NC(=O)[C@H](C(C)C)NC(=O)[C@H](Cc2ccccn2)NC(=O)[C@H](C(C)C)NC(=O)[C@H](CCCNC(=N)N)NC(=O)[C@H](CC(=O)O)NC(=O)[C@H](Cc2ccc(O)cc2)NC(=O)CN(C)C(=O)[C@H](Cc2ccc(-c3ccccc3)cc2)NC(=O)[C@H](Cc2ccc(-c3ccccc3)cc2)NC(=O)[C@H](CN2CCOCC2)NC(=O)CSC[C@@H](C(=O)NCC(N)=O)NC1=O [Example 109] ({CH2CO}-[Ala(morpholin-4-yl)][Bip][Bip][Sar]YDRV[2Pal]VYLCG-NH2; thioether N-13)	200 to 2000 nM
CC(C)C[C@@H]1NC(=O)[C@H](Cc2ccc(O)cc2)NC(=O)[C@H](C(C)C)NC(=O)[C@@H]2CCCN2C(=O)[C@H](Cc2ccc(O)cc2)NC(=O)[C@H](CCCNC(=N)N)NC(=O)[C@H](CC(=O)O)NC(=O)[C@H](Cc2ccc(O)cc2)NC(=O)CN(C)C(=O)[C@H](Cc2ccc(-c3ccccc3)cc2)NC(=O)[C@H](Cc2ccc(-c3ccccc3)cc2)NC(=O)[C@H](C(C)(C)O)NC(=O)CSC[C@@H](C(=O)NCC(N)=O)NC1=O [Example 110] ({CH2CO}-[Val(3-OH)][Bip][Bip][Sar]YDRYPVYLCG-NH2; thioether N-13)	50 to 200 nM
CC(C)C[C@@H]1NC(=O)[C@H](Cc2ccc(O)cc2)NC(=O)[C@H](C(C)C)NC(=O)[C@@H]2CCCN2C(=O)[C@H](Cc2ccc(O)cc2)NC(=O)[C@H](CCCNC(=N)N)NC(=O)[C@H](CC(=O)O)NC(=O)[C@@H]2CCCN2C(=O)CN(C)C(=O)[C@H](Cc2ccc(-c3ccccc3)cc2)NC(=O)[C@H](Cc2ccc(-c3ccccc3)cc2)NC(=O)[C@H](C(C)(C)O)NC(=O)CSC[C@@H](C(=O)NCC(N)=O)NC1=O [Example 111] ({CH2CO}-[Val(3-OH)][Bip][Bip][Sar]PDRYPVYLCG-NH2; thioether N-13)	200 to 2000 nM
CC(C)C[C@@H]1NC(=O)[C@H](Cc2ccc(O)cc2)NC(=O)[C@H](C(C)C)NC(=O)[C@@H]2CCCN2C(=O)[C@H](Cc2ccc(N)cc2)NC(=O)[C@H](CCCNC(=N)N)NC(=O)[C@H](CC(=O)O)NC(=O)[C@H](Cc2ccc(O)cc2)NC(=O)CN(C)C(=O)[C@H](Cc2ccc(-c3ccccc3)cc2)NC(=O)[C@H](Cc2ccc(-c3ccccc3)cc2)NC(=O)[C@H](CN2CCOCC2)NC(=O)CSC[C@@H](C(=O)NCC(N)=O)NC1=O [Example 112] ({CH2CO}-[Ala(morpholin-4-yl)][Bip][Bip][Sar]YDR[Phe(4-NH2)]PVYLCG-NH2; thioether N-13)	200 to 2000 nM
CC(C)C[C@@H]1NC(=O)[C@H](Cc2ccc(O)cc2)NC(=O)[C@H](C(C)C)NC(=O)[C@@H]2CCCN2C(=O)[C@H](Cc2ccc(N)cc2)NC(=O)[C@H](CCCNC(=N)N)NC(=O)[C@H](CC(=O)O)NC(=O)[C@@H]2CCCN2C(=O)CN(C)C(=O)[C@H](Cc2ccc(-c3ccccc3)cc2)NC(=O)[C@H](Cc2ccc(-c3ccccc3)cc2)NC(=O)[C@H](CN2CCOCC2)NC(=O)CSC[C@@H](C(=O)NCC(N)=O)NC1=O [Example 113] ({CH2CO}-[Ala(morpholin-4-yl)][Bip][Bip][Sar]PDR[Phe(4-NH2)]PVYLCG-NH2; thioether N-13)	200 to 2000 nM
CC(C)C[C@@H]1NC(=O)[C@H](CCCNC(=N)N)NC(=O)[C@H](C(C)C)NC(=O)[C@@H]2CCCN2C(=O)[C@H](Cc2cccnc2)NC(=O)[C@H](CCCNC(=N)N)NC(=O)[C@H](CC(=O)O)NC(=O)[C@H](Cc2ccc(O)cc2)NC(=O)CN(C)C(=O)[C@H](Cc2ccc(-c3ccccc3)cc2)NC(=O)[C@H](Cc2ccc(-c3ccccc3)cc2)NC(=O)[C@H](CN2CCOCC2)NC(=O)CSC[C@@H](C(=O)NCC(N)=O)NC1=O [Example 114] ({CH2CO}-[Ala(morpholin-4-yl)][Bip][Bip][Sar]YDR[3Pal]PVRLCG-NH2; thioether N-13)	200 to 2000 nM
CC(C)C[C@@H]1NC(=O)[C@H](Cc2ccc(O)cc2)NC(=O)[C@H](C(C)C)NC(=O)[C@@H]2CCCN2C(=O)[C@H](Cc2cccnc2)NC(=O)[C@H](CCCNC(=N)N)NC(=O)[C@H](CC(=O)O)NC(=O)[C@H](Cc2ccc(O)cc2)NC(=O)CN(C)C(=O)[C@H](Cc2ccc(-c3ccccc3)cc2)NC(=O)[C@H](Cc2ccc(-c3ccccc3)cc2)NC(=O)[C@H](CN2CCOCC2)NC(=O)CSC[C@@H](C(=O)NCC(N)=O)NC1=O [Example 115] ({CH2CO}-[Ala(morpholin-4-yl)][Bip][Bip][Sar]YDR[3Pal]PVYLCG-NH2; thioether N-13)	200 to 2000 nM
CC(C)C[C@@H]1NC(=O)[C@H](Cc2ccc(O)cc2)NC(=O)[C@H](C(C)C)NC(=O)[C@@H]2CCCN2C(=O)[C@H](Cc2cccnc2)NC(=O)[C@H](CCCNC(=N)N)NC(=O)[C@H](CC(=O)O)NC(=O)[C@@H]2CCCN2C(=O)CN(C)C(=O)[C@H](Cc2ccc(-c3ccccc3)cc2)NC(=O)[C@H](Cc2ccc(-c3ccccc3)cc2)NC(=O)[C@H](CN2CCOCC2)NC(=O)CSC[C@@H](C(=O)NCC(N)=O)NC1=O [Example 116] ({CH2CO}-[Ala(morpholin-4-yl)][Bip][Bip][Sar]PDR[3Pal]PVYLCG-NH2; thioether N-13)	50 to 200 nM
CC(C)C[C@@H]1NC(=O)[C@H](CCCNC(=N)N)NC(=O)[C@H](C(C)C)NC(=O)[C@@H]2CCCN2C(=O)[C@H](Cc2cccnc2)NC(=O)[C@@H](CCCNC(=N)N)NC(=O)[C@H](CC(=O)O)NC(=O)[C@H](Cc2ccc(O)cc2)NC(=O)CN(C)C(=O)[C@H](Cc2ccc(-c3ccccc3)cc2)NC(=O)[C@H](Cc2ccc(-c3ccccc3)cc2)NC(=O)[C@H](CN2CCOCC2)NC(=O)CSC[C@@H](C(=O)NCC(N)=O)NC1=O [Example 117] ({CH2CO}-[Ala(morpholin-4-yl)][Bip][Bip][Sar]YD[dR][3Pal]PVRLCG-NH2; thioether N-13)	200 to 2000 nM
CC(C)C[C@@H]1NC(=O)[C@H](Cc2ccc(O)cc2)NC(=O)[C@H](C(C)C)NC(=O)[C@@H]2CCCN2C(=O)[C@H](Cc2cccnc2)NC(=O)[C@@H](CCCNC(=N)N)NC(=O)[C@H](CC(=O)O)NC(=O)[C@H](Cc2ccc(O)cc2)NC(=O)CN(C)C(=O)[C@H](Cc2ccc(-c3ccccc3)cc2)NC(=O)[C@H](Cc2ccc(-c3ccccc3)cc2)NC(=O)[C@H](CN2CCOCC2)NC(=O)CSC[C@@H](C(=O)NCC(N)=O)NC1=O [Example 118] ({CH2CO}-[Ala(morpholin-4-yl)][Bip][Bip][Sar]YD[dR][3Pal]PVYLCG-NH2; thioether N-13)	200 to 2000 nM
